Results reported in patent US10047105B2, “Gyrase inhibitors” (Merck Sharp & Dohme Corp., priority 2009, dated 2018).
≈ marks a conversion by molar mass, not a printed value.

Legend:
[1] = tested on: S. pneumoniae ATCC 51916; experiment: MIC, S. pneumoniae; assay type: cell-based
[2] = tested on: S. aureus ATCC 13709; experiment: MIC, antibacterial potency, S. aureus; assay type: cell-based
[3] = S. pneumoniae (Spn52), in µg/mL

| MIC Spn52 [1, 3] | MIC, SA ([2]; S. aureus (SA), in µg/mL) | SMILES | MIC Spn52 ([1]; S. pneumoniae) [µg/mL] | MIC, SA ([2]; S. aureus) [µg/mL] |
| --- | --- | --- | --- | --- |
| 8 | 2 | CCc1[nH]c2nc(Sc3ccc(C#N)nc3)nc(N3CC[C@@H](N)C3)c2c1Cl [700,818] | – | – |
| – | – | CCc1[nH]c2nc(Sc3ccc4cc(C#N)cnc4c3)nc(N3CC[C@@H](N)C3)c2c1Cl [700,715] | 1 (≈ 2.22 µM) | ≤ 0.5 |
| – | – | CCc1[nH]c2nc(Sc3cnc4nccnc4c3)nc(N3CC(O)C3)c2c1Cl [700,393] | 1 (≈ 2.42 µM) | ≤ 0.5 |
| – | – | CCc1[nH]c2nc(Sc3cnc4nccnc4c3)nc(N3CCCC(CO)C3)c2c1Cl (stereo not shown) [700,425] | 2 (≈ 4.39 µM) | ≤ 0.5 |
| – | – | CCc1[nH]c2nc(Sc3cnc4nccnc4c3)nc(N3CC(NC(=O)c4csc(N)n4)C3)c2c1Cl [700,453] | ≤ 0.5 | ≤ 0.5 |
| – | – | CCc1[nH]c2nc(Sc3cnc4nccnc4c3)nc(N3CCC[C@@H](N)C3)c2c1Cl [700,588] | 8 (≈ 18.1 µM) | 8 (≈ 18.1 µM) |
| 8 | 1 | CCc1[nH]c2nc(Oc3cncnc3)nc(N(C)C)c2c1Br [700,866] | – | – |
| – | – | CCc1[nH]c2nc(Sc3cnc4nccnc4c3)nc(N3CCC(CN)C3)c2c1Cl.O=C(O)C(F)(F)F (stereo not shown) [700,720] | 16 | 8 |
| – | – | CCc1[nH]c2nc(Sc3cnc4nccnc4c3)nc(N3CC4CCNC4C3)c2c1Cl.O=C(O)C(F)(F)F (stereo not shown) [700,563] | 2 | 1 |
| – | – | CCc1[nH]c2nc(Sc3cnc4nccnc4c3)nc(N3CC(N4CCN(C(=O)OC(C)(C)C)CC4)C3)c2c1Cl.O=C(O)C(F)(F)F.O=C(O)C(F)(F)F [700,671] | 32 | 8 |
| – | – | CCc1[nH]c2nc(Sc3ccc4cc(C#N)cnc4c3)nc(N3CC(CN)C3)c2c1Cl [700,716] | 2 (≈ 4.44 µM) | 1 (≈ 2.22 µM) |
| – | – | CCOc1nc(Oc2ccc3c(N)nc(C)nc3c2)nc2[nH]c(CC)c(Cl)c12.O=C(O)C(F)(F)F [700,664] | 4 | 2 |
| 32 | 8 | CCc1[nH]c2nc(Sc3cnc4c(N)nc(CN5CCNCC5)nc4c3)nc(N3CC[C@@H](N)C3)c2c1Cl [700,826] | – | – |
| 32 | 64 | CCc1[nH]c2nc(Sc3ccc4nnc(C(=O)NCCN5CCCC5)nc4c3)nc(N3CC[C@@H](N)C3)c2c1Cl [700,844] | – | – |
| 4 | 2 | C=Cc1nc(Oc2cccc(C#N)c2)nc2[nH]c(CC)c(Cl)c12 [700,831] | – | – |
| – | – | CCc1[nH]c2nc(Sc3cnc4cccnc4n3)nc(N3CC(NC(=O)OCc4ccccc4)C3)c2c1Br [700,390] | ≤ 0.5 | ≤ 0.5 |
| – | – | CCc1[nH]c2nc(Sc3cc(=O)n(CC(=O)O)c(=O)[nH]3)nc(N3CC(O)C3)c2c1Br [700,402] | > 64 | > 64 |
| – | – | CCc1[nH]c2nc(Nc3cnc4c(c3)nnn4C)nc(OC)c2c1Br.O=C(O)C(F)(F)F [700,599] | 2 | ≤ 0.5 |
| – | – | CCc1[nH]c2nc(Oc3cnc4ccoc4c3)nc(Oc3cnc4ccoc4c3)c2c1Cl.O=C(O)C(F)(F)F [700,650] | 1 | ≤ 0.5 |
| – | – | CCc1[nH]c2nc(Sc3ccc4c(N)ncnc4c3)nc(N3CC4CNC4C3)c2c1Cl (stereo not shown) [700,689] | 8 (≈ 17.7 µM) | 2 (≈ 4.42 µM) |

| MIC Spn52 [1, 3] | MIC, SA ([2]; S. aureus (SA), in µg/mL) | SMILES | MIC Spn52 ([1]; S. pneumoniae) [µg/mL] | MIC, SA ([2]; S. aureus) [µg/mL] |
| --- | --- | --- | --- | --- |
| – | – | CCc1[nH]c2nc(Oc3cncc(C#N)c3)nc(Oc3cncc(C#N)c3)c2c1Br.O=C(O)C(F)(F)F [700,724] | ≤ 0.5 | ≤ 0.5 |
| – | – | CCc1[nH]c2nc(Cc3cccnc3)nc(N3CCC(CN)CC3)c2c1Cl [700,585] | > 64 | > 64 |
| – | – | CCc1[nH]c2nc(Sc3cc(=O)n(CC(C)=O)c(=O)[nH]3)nc(N3CC(O)C3)c2c1Br [700,442] | 2 (≈ 4.04 µM) | ≤ 0.5 |
| – | – | CCc1[nH]c2nc(Sc3cnc4nccnc4c3)nc(N3CCC[C@H]3CN)c2c1Cl [700,462] | 32 (≈ 72.6 µM) | > 64 |
| – | – | CCc1[nH]c2nc(Sc3ccc4nc[nH]c(=O)c4c3)nc(N3CC(N)C3)c2c1Cl.O=C(O)C(F)(F)F [700,694] | 8 | 2 |
| – | – | CCc1[nH]c2nc(Sc3cccnc3)nc(Cl)c2c1Br.O=C(O)C(F)(F)F [700,267] | 16 | 2 |
| – | – | CCc1[nH]c2nc(Sc3cnc4nccnc4c3)nc(NCCN3CCCC3)c2c1Cl.O=C(O)C(F)(F)F [700,510] | > 64 | > 64 |
| – | – | CCOc1nc(Nc2cnc3c(cnn3C(C)C)c2)nc2[nH]c(CC)c(Br)c12.O=C(O)C(F)(F)F [700,381] | 8 | 1 |
| – | – | CCOc1nc(Nc2cnc3c(c2)nnn3C(C)C)nc2[nH]c(CC)c(Br)c12.O=C(O)C(F)(F)F [700,450] | 4 | ≤ 0.5 |
| >64 | 16 | CCc1[nH]c2nc(Sc3ccc4cc5c(=O)[nH][nH]c(=O)c5nc4c3)nc(N3CC[C@@H](N)C3)c2c1Cl [700,861] | – | – |
| – | – | CCc1[nH]c2nc(Sc3cnc4nccnc4c3)nc(N3CC(NC(=O)COn4nnc5ccccc54)C3)c2c1Cl [700,506] | 1 (≈ 1.7 µM) | ≤ 0.5 |
| 64 | 64 | CCc1[nH]c2nc(Sc3cnc4cccnc4c3)nc(N3C[C@@H]4[C@H](C3)[C@H]4N(Cc3ccccc3)Cc3ccccc3)c2c1Cl [700,823] | – | – |
| – | – | Cc1[nH]c2nc(Sc3cnc4cccnc4n3)nc(N3CC(O)C3)c2c1C [700,351] | > 64 | > 64 |
| 4 | 2 | CCc1[nH]c2nc(Sc3cnc4nccnc4c3)nc(N3CCCC(CO)C3)c2c1Cl (stereo not shown) [700,814] | – | – |
| – | – | CCc1[nH]c2nc(Sc3cnc4nccnc4c3)nc(N3CCC[C@H]3COC)c2c1Cl [700,688] | ≤ 0.5 | ≤ 0.5 |
| – | – | CCc1[nH]c2nc(Sc3cnc4nccnc4c3)nc(N3CC(N)C4(CC4)C3)c2c1Cl.O=C(O)C(F)(F)F (stereo not shown) [700,678] | 2 | 1 |
| – | – | CCc1[nH]c2nc(Sc3cnc4nccnc4c3)nc(N3CC(NC(=O)c4cc(N)ccn4)C3)c2c1Cl [700,454] | 1 (≈ 1.88 µM) | ≤ 0.5 |
| 16 | 8 | CCc1[nH]c2nc(Sc3cnc(N)nc3)nc(N3CC4CCNC4C3)c2c1Cl (stereo not shown) [700,803] | – | – |
| – | – | CCc1[nH]c2nc(Sc3cnc4c(N)nc(C)nc4c3)nc(N3CC(N)C3)c2c1Cl.O=C(O)C(F)(F)F [700,515] | 1 | 1 |
| – | – | CCc1[nH]c2nc(Sc3cnc4nccnc4c3)nc(N3CC(NC(=O)OCc4ccccc4)C3)c2c1Br [700,404] | ≤ 0.5 | ≤ 0.5 |

| MIC Spn52 [1, 3] | MIC, SA ([2]; S. aureus (SA), in µg/mL) | SMILES | MIC Spn52 ([1]; S. pneumoniae) [µg/mL] | MIC, SA ([2]; S. aureus) [µg/mL] |
| --- | --- | --- | --- | --- |
| – | – | CCc1[nH]c2nc(Sc3cccnc3)nc(N3CC(N)C3)c2c1Cl [700,560] | 32 (≈ 88.7 µM) | 8 (≈ 22.2 µM) |
| – | – | CCc1[nH]c2nc(Sc3cnc4c(N)nc(N)nc4c3)nc(N(C)CCNC)c2c1Cl.O=C(O)C(F)(F)F.O=C(O)C(F)(F)F [700,472] | 64 | 64 |
| 16 | 4 | CCc1[nH]c2nc(Sc3ccc4ccc(C(=O)O)nc4c3)nc(N3CC(CNC(=O)C4CC4)C3)c2c1Cl [700,804] | – | – |
| – | – | CCc1[nH]c2nc(Cn3cncn3)nc(N3CCN(C(C)=O)CC3)c2c1Br [700,374] | > 64 | > 64 |
| – | – | CCc1[nH]c2nc(Sc3cnc4c(N)nc(C)nc4c3)nc(N3CC(O)C3)c2c1Cl.O=C(O)C(F)(F)F [700,514] | ≤ 0.5 | ≤ 0.5 |
| – | – | CCc1[nH]c2nc(Sc3cnc4nccnc4c3)nc(N3CC(N(C)C)C3)c2c1Cl.O=C(O)C(F)(F)F.O=C(O)C(F)(F)F [700,603] | 8 | 4 |
| – | – | CCc1[nH]c2nc(Sc3cnc4nccnc4c3)nc(N(C)C[C@@H](O)c3cccc(O)c3)c2c1Cl.O=C(O)C(F)(F)F [700,570] | 8 | 1 |
| – | – | CCc1[nH]c2nc(Sc3cnc(N4CCC4)c(C#N)c3)nc(N3CCC(N)C3)c2c1Cl (stereo not shown) [700,589] | 8 (≈ 17.6 µM) | 2 (≈ 4.4 µM) |
| – | – | CCc1[nH]c2nc(Sc3nc(C(=O)O)c(Cl)s3)nc(N3CCC(N)C3)c2c1Cl (stereo not shown) [700,559] | > 64 | > 64 |
| – | – | CCc1[nH]c2nc(Nc3cnc4c(c3)nnn4C(C)C)nc(N3CC[C@@H](N(C)C)C3)c2c1Cl.O=C(O)C(F)(F)F.O=C(O)C(F)(F)F [700,528] | 8 | 8 |
| – | – | CCc1[nH]c2nc(Nc3cnc4c(c3)nnn4C(C)C)nc(N3CC(O)C3)c2c1Cl.O=C(O)C(F)(F)F [700,525] | > 64 | > 64 |
| – | – | CCOc1nc(Oc2ccc3ccncc3c2)nc2[nH]c(CC)c(Cl)c12.O=C(O)C(F)(F)F [700,691] | > 64 | > 64 |
| – | – | CCc1[nH]c2nc(Sc3ccc(S(=O)(=O)NCCN4CCOCC4)cc3)nc(N3CC(N)C3)c2c1Cl [700,596] | 32 (≈ 58 µM) | 32 (≈ 58 µM) |
| – | – | CCc1[nH]c2nc(Sc3nc(C(=O)O)cs3)nc(N3CCOCC3)c2c1Cl.O=C(O)C(F)(F)F [700,396] | > 64 | > 64 |
| >64 | >64 | CCc1[nH]c2nc(Oc3cncc(C#N)c3)nc(Oc3ccc(OC)c(OC)c3)c2c1Cl [700,813] | – | – |
| – | – | CCOc1nc(Nc2cnc3c(c2)nnn3C)nc2[nH]c(CC)c(Br)c12.O=C(O)C(F)(F)F [700,600] | > 8 | > 8 |
| >64 | >64 | CCc1[nH]c2nc(Sc3cnc4cccnc4c3)nc(N3CCC(N)(C(=O)N[C@H](CO)C(=O)O)C3)c2c1Cl (stereo partly shown) [700,891] | – | – |
| – | – | CCc1[nH]c2nc(Sc3cc(=O)n(CC4CC4)c(=O)[nH]3)nc(N3CC(O)C3)c2c1Br [700,416] | 2 (≈ 4.05 µM) | ≤ 0.5 |
| – | – | CCc1[nH]c2nc(Sc3cnc4nccnc4c3)nc(NCCN3CCNCC3)c2c1Cl.O=C(O)C(F)(F)F.O=C(O)C(F)(F)F [700,511] | > 64 | > 64 |

| SMILES | MIC Spn52 [1, 3] | MIC, SA ([2]; S. aureus (SA), in µg/mL) | MIC Spn52 ([1]; S. pneumoniae) [µg/mL] | MIC, SA ([2]; S. aureus) [µg/mL] |
| --- | --- | --- | --- | --- |
| CCc1[nH]c2nc(Sc3cnc4cccnc4c3)nc(N3CC4CNC4C3)c2c1Cl.O=C(O)C(F)(F)F.O=C(O)C(F)(F)F (stereo not shown) [700,796] | 1 | <=0.5 | – | – |
| CCc1[nH]c2nc(Sc3cnc4c(c3)ncc(=O)n4CCCN3CCCC3=O)nc(N3CC[C@@H](N)C3)c2c1Cl [700,797] | >32 | >32 | – | – |
| CCc1[nH]c2nc(Sc3cnc4c(c3)ncc(=O)n4CCO)nc(N3CC[C@@H](N)C3)c2c1Cl [700,798] | 32 | 16 | – | – |
